Laboratory results reported in patent US12577213B2 (NINGBO COMBIREG PHARMACEUTICAL TECHNOLOGY CO., LTD., priority 2020, dated 2026).
Where two headings read alike, the source gives them in different places.

Legend:
[1] = system: A549 (non-small cell lung cancer); assay: NCI method SRB growth inhibition, A549; type: cell-based; conditions: Homo sapiens; A549, treated 48 hours, SRB stain
Text: (§1) In this embodiment, the method of National Cancer Institute (NCI) was used to evaluate the anti-tumor activity of the embodiment compounds in the present disclosure. Nine representative cell lines were selected for activity evaluation, including A549 (non-small cell lung cancer), HCT116 (colon cancer), SF295 (central nervous system tumor), LOX-IMVI (melanoma), 786-0 (renal cancer), K562 (leukemia), PC-3 (prostate cancer), OVCAR-3 (ovarian cancer) and HS 578T (breast cancer).
(§2) The specific method was as follows: 60 tumor cell lines of 9 kinds of human cancers were used to evaluate the inhibitory activity of the compound in vitro. A test group, a parallel control group and a vehicle control group were set up. The parallel control group was fixed immediately before the compound was added; the cells in the test group were fixed after being treated with the compound for 48 hours; the vehicle control group was fixed after an equal volume of complete medium was added for 48 hours. Sulforhodamine B (SRB) was used to stain, and the OD value was measured at a wavelength of 515 nm. The specific calculation method was as follows: the OD value of the parallel control group was recorded as Tz, the OD value of the vehicle control group was recorded as C, and the OD value of the test group was recorded as (Ti). If Ti≥Tz, it means that the cells still grow after the drug was added, and the growth rate %=[(Ti−Tz)/(C−Tz)]×100; if Ti<Tz, it means that the cells are killed after the drug was added, and the growth rate %=[(Ti−Tz)/Tz]×100. Three parameters were used to evaluate the anti-tumor activity of compounds in this method: 50% growth inhibitory concentration (GI50): i.e. the compound concentration at [(Ti−Tz)/(C−Tz)]×100=50; complete growth inhibitory concentration (TGI): the compound concentration at Ti=Tz; the drug concentration required to kill 50% of the cells (LC50): i.e. the compound concentration at [(Ti−Tz)/Tz]×100=−50.
(§3) The inhibitory activities of the embodiment compounds on nine representative tumor cell lines were listed in detail in Table 1. Wherein, the GI50 value means “50% growth inhibition rate”, that is, the concentration of the compound to be tested when it can inhibit […] of cell growth; “ND” means not detected.

786-0 (renal cancer) = assay: NCI method SRB growth inhibition, 786-0; type: cell-based; conditions: Homo sapiens; 786-0, treated 48 hours, SRB stain
Text: as §1, §2, §3

HCT116 (colon cancer) = assay: NCI method SRB growth inhibition, HCT116; type: cell-based; conditions: Homo sapiens, HCT-116; HCT116, treated 48 hours, SRB stain
Text: as §1, §2, §3

K562 (leukemia) = assay: NCI method SRB growth inhibition, K562; type: cell-based; conditions: Homo sapiens; K562, treated 48 hours, SRB stain
Text: as §1, §2, §3

PC-3 (prostate cancer) = assay: NCI method SRB growth inhibition, PC-3; type: cell-based; conditions: Homo sapiens; PC-3, treated 48 hours, SRB stain
Text: as §1, §2, §3

LOX-IMVI (melanoma) = assay: NCI method SRB growth inhibition, LOX-IMVI; type: cell-based; conditions: Homo sapiens, treated 48 hours, SRB stain
Text: as §1, §2, §3

[2] = system: SF295 (central nervous system tumor); assay: NCI method SRB growth inhibition, SF295; type: cell-based; conditions: Homo sapiens, SF-295; SF295, treated 48 hours, SRB stain
Text: as §1, §2, §3

OVCAR-3 (ovarian cancer) = assay: NCI method SRB growth inhibition, OVCAR-3; type: cell-based; conditions: Homo sapiens; OVCAR-3, treated 48 hours, SRB stain
Text: as §1, §2, §3

HS 578T (breast cancer) = assay: NCI method SRB growth inhibition, HS 578T; type: cell-based; conditions: Homo sapiens, HS578T, treated 48 hours, SRB stain
Text: as §1, §2, §3

[3] = Liver microsomes stability; type: in vitro ADME, human; conditions: 1 μM compound, 1 mg/mL human liver microsomes, 1 mM NADPH; for half-life at 1 μM: read-out: T½ of HLM
Experimental: The compound to be tested with final concentration of 1 μM was incubated with 1 mg/mL of human liver microsomes and 1 mM of NADPH, and a group without NADPH was set as a negative control. The reaction mixture was quenched with methanol at five time points of 0, 5, 15, 30 and 60 min, respectively, then centrifuged at 2500 rpm for 20 min to precipitate proteins, and the resulting supernatant was analyzed by LC-MS/MS. The data was analyzed and the k value and half-life T1/2 was calculated, T1/2(min)=0.693/k.
Wherein, compounds a, b and c are active compounds disclosed in patent No. ZL201610154581.3.

Row | Structure (SMILES) | microsomal CLint at 1 μM [3] | half-life at 1 μM ([3]; human, human liver microsomes) | GI50 [1] | GI50 (786-0 (renal cancer)) | GI50 (HCT116 (colon cancer)) | GI50 (K562 (leukemia)) | GI50 (PC-3 (prostate cancer)) | GI50 (LOX-IMVI (melanoma)) | GI50 [2] | GI50 (OVCAR-3 (ovarian cancer)) | GI50 (HS 578T (breast cancer)) | half-life at 1 μM [3] | microsomal CLint at 1 μM ([3]; human, human liver microsomes)
1 | [2H]C([2H])([2H])OC(=O)C[C@@H]1NC(=O)c2cc(Oc3cc(C)cc(C)c3)c(NC(=O)c3cc(OC)c(OC)c(OC)c3Cl)cc2NC1=O [Compound 9, (S)-2-[8-(2-chloro-3,4,5-trimethoxybenzamido)-7-(3,5-dimethylphenoxy)-2,5-dioxo-2,3,4,5-tetrahydro-1H-benzo[e][1,4]diazepin-3-yl]acetic acid trideuteromethyl ester] | 5.9 µL/min/mg | 117 min | 23 nM | 44.8 nM | 14.8 nM | 17 nM | 13.1 nM | 13.9 nM | 15.2 nM | 8.6 nM | 40.5 nM |  | 
2 | [2H]C([2H])([2H])Oc1cc(C(=O)Nc2cc3c(cc2Oc2cc(C)cc(C)c2)C(=O)N(C)[C@@H](CC(=O)N(OC([2H])([2H])[2H])C([2H])([2H])[2H])C(=O)N3)c(Cl)c(OC([2H])([2H])[2H])c1OC([2H])([2H])[2H] [Compound 39] | 13.7 µL/min/mg | 50.6 min | < 5 nM | 9 nM | 7 nM | < 5 nM | < 5 nM | < 5 nM | 12 nM | < 5 nM | 6 nM |  | 
3 | [2H]c1c(C)c([2H])c(Oc2cc3c(cc2NC(=O)c2cc(OC)c(OC)c(OC)c2Cl)NC(=O)[C@H](CC(=O)N(CC)CC)NC3=O)c([2H])c1C [Compound 24, (S)-2-chloro-N-[3-[2-(diethylamino)-2-oxoethyl]-7-(3,5-dimethyl-2,4,6-trideuterophenoxy)-2,5-dioxo-2,3,4,5-tetrahydro-1H-benzo[e][1,4]diazepin-8-yl]-3,4,5-trimethoxybenzamide] | 28.4 µL/min/mg | 24.4 min | 207 nM | 276 nM | 123 nM | 25.5 nM | 39.5 nM | 65.8 nM | 135 nM | 87.6 nM | 188 nM |  | 
4 | CCN(CC)C(=O)C[C@@H]1NC(=O)c2cc(Oc3cc(C)cc(C)c3)c(NC(=O)c3cc(OC)c(OC)c(OC)c3Cl)cc2NC1=O [c, reference compound] | 26.5 µL/min/mg | 26.2 min |  |  |  |  |  |  |  |  |  |  | 
5 | [2H]C([2H])([2H])Oc1cc(C(=O)Nc2cc3c(cc2Oc2cc(C)cc(C)c2)C(=O)N(C)[C@@H](CC(=O)N(OC([2H])([2H])[2H])C([2H])([2H])[2H])C(=O)N3)c(Br)c(OC([2H])([2H])[2H])c1OC([2H])([2H])[2H] [Compound 34] |  |  | < 5 nM | < 5 nM | < 5 nM | < 5 nM | < 5 nM | < 5 nM | < 5 nM | < 5 nM | < 5 nM | 72.2 min | 9.6 µL/min/mg
6 | CCN(CC)C(=O)C[C@@H]1NC(=O)c2cc(Oc3cc(C)cc(C)c3)c(NC(=O)c3cc(OC)c(OC)c(OC)c3Br)cc2NC1=O [b, reference compound] | 26.4 µL/min/mg | 26.3 min |  |  |  |  |  |  |  |  |  |  | 
7 | [2H]C([2H])([2H])Oc1cc(C(=O)Nc2cc3c(cc2Oc2cc(C)cc(C)c2)C(=O)N[C@@H](CC(=O)N(CC)CC)C(=O)N3)c(Br)c(OC([2H])([2H])[2H])c1OC([2H])([2H])[2H] [Compound 4, (S)-2-bromo-N-[3-[2-(diethylamino)-2-oxoethyl]-7-(3,5-dimethylphenoxy)-2,5-dioxo-2,3,4,5-tetrahydro-1H-benzo[e][1,4]diazepin-8-yl]-3,4,5-tris(trideuteromethoxy)benzamide] | 20.5 µL/min/mg | 33.8 min | < 5 nM | 11.9 nM | < 5 nM | < 5 nM | < 5 nM | < 5 nM | 6 nM | < 5 nM |  |  | 

More lines, main results first:

Row | microsomal CLint at 1 μM [3] | half-life at 1 μM ([3]; human, human liver microsomes) | Structure (SMILES) | GI50 [1] | GI50 (786-0 (renal cancer)) | GI50 (HCT116 (colon cancer)) | GI50 (K562 (leukemia)) | GI50 (PC-3 (prostate cancer)) | GI50 (LOX-IMVI (melanoma)) | GI50 [2] | GI50 (OVCAR-3 (ovarian cancer)) | GI50 (HS 578T (breast cancer)) | half-life at 1 μM [3] | microsomal CLint at 1 μM ([3]; human, human liver microsomes)
8 | 65.1 µL/min/mg | 10.6 min | [2H]C([2H])([2H])N1C(=O)c2cc(Oc3cc(C)cc(C)c3)c(NC(=O)c3cc(OC)c(OC)c(OC)c3Br)cc2NC(=O)[C@@H]1CC(=O)N(CC)CC [Compound 18, (S)-2-bromo-N-[3-[2-(diethylamino)-2-oxoethyl]-7-(3,5-dimethylphenoxy)-4-trideuteromethyl-2,5-dioxo-2,3,4,5-tetrahydro-1H-benzo[e][1,4]diazepin-8-yl]-3,4,5-trimethoxybenzamide] | < 5 nM | < 5 nM | < 5 nM | < 5 nM | < 5 nM | < 5 nM | < 5 nM | < 5 nM | 15.4 nM |  | 
9 | 7.6 µL/min/mg | 91.2 min | [2H]C([2H])([2H])Oc1cc(C(=O)Nc2cc3c(cc2Oc2cc(C)cc(C)c2)C(=O)N[C@@H](CC(=O)N(OC)C([2H])([2H])[2H])C(=O)N3)c(Br)c(OC([2H])([2H])[2H])c1OC([2H])([2H])[2H] [Compound 41] | < 5 nM | < 5 nM | < 5 nM | < 5 nM | < 5 nM | < 5 nM | < 5 nM | < 5 nM | < 5 nM |  | 
10 | 10.8 µL/min/mg | 64.2 min | [2H]C([2H])([2H])N(C(=O)C[C@H]1C(=O)Nc2cc(NC(=O)c3cc(OC)c(OC)c(OC)c3Br)c(Oc3cc(C)cc(C)c3)cc2C(=O)N1C)C([2H])([2H])[2H] [Compound 15, (S)-2-bromo-N-[3-[2-[bis(trideuteromethyl)amino]-2-oxoethyl]-7-(3,5-dimethylphenoxy)-4-methyl-2,5-dioxo-2,3,4,5-tetrahydro-1H-benzo[e][1,4]diazepin-8-yl]-3,4,5-trimethoxybenzamide] | < 5 nM | 6.2 nM |  | < 5 nM | < 5 nM | < 5 nM | < 5 nM | < 5 nM |  |  | 
11 | 7.2 µL/min/mg | 96.3 min | [2H]C([2H])([2H])Oc1cc(C(=O)Nc2cc3c(cc2Oc2cc(C)cc(C)c2)C(=O)N[C@@H](CC(=O)N(OC([2H])([2H])[2H])C([2H])([2H])[2H])C(=O)N3)c(Cl)c(OC([2H])([2H])[2H])c1OC([2H])([2H])[2H] [Compound 38] | < 5 nM | 23 nM | 13 nM | < 5 nM | < 5 nM | 5.2 nM | 27 nM | < 5 nM | 21 nM |  | 
12 | 4.6 µL/min/mg | 151 min | [2H]C([2H])([2H])N(C(=O)C[C@@H]1NC(=O)c2cc(Oc3cc(C)cc(C)c3)c(NC(=O)c3cc(OC)c(OC)c(OC)c3Br)cc2NC1=O)C([2H])([2H])[2H] [Compound 22, (S)-2-bromo-N-[3-[2-[bis(trideuteromethyl)amino]-2-oxoethyl]-7-(3,5-dimethylphenoxy)-2,5-dioxo-2,3,4,5-tetrahydro-1H-benzo[e][1,4]diazepin-8-yl]-3,4,5-trimethoxybenzamide] | < 5 nM | 12.6 nM | 7.1 nM | < 5 nM | < 5 nM | < 5 nM | 10 nM | < 5 nM |  |  | 
